Test results reported in PubChem BioAssay (NCI).
“And” between values parts separate entries of the source, which are not always exact repeats. Identical values can stand only once.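 Five concentrations, 48 hours, 96-well plates. GI50: concentration for 50% inhibition of growth. Definition used: TGI = concentration required for complete inhibition of growth.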

Columns and labels:
Assay in all cases: growth of human tumour cells (NCI), 48 h
HL-60(TB) leukemia = system: HL-60(TB) leukemia
IGROV1 ovarian = system: IGROV1 ovarian
UACC-257 melanoma = system: UACC-257 melanoma
HCC-2998 colon = system: HCC-2998 colon
M14 melanoma = system: M14 melanoma
A498 renal = system: A498 renal
SK-MEL-28 melanoma = system: SK-MEL-28 melanoma
HCT-116 colon = system: HCT-116 colon
MALME-3M melanoma = system: MALME-3M melanoma
SF-268 CNS = system: SF-268 CNS

Structure (SMILES)	TGI (HL-60(TB) leukemia)	TGI (IGROV1 ovarian)	TGI (UACC-257 melanoma)	TGI (HCC-2998 colon)	TGI (M14 melanoma)	TGI (A498 renal)	TGI (SK-MEL-28 melanoma)	TGI (HCT-116 colon)	TGI (MALME-3M melanoma)	GI50 (HL-60(TB) leukemia)	GI50 (IGROV1 ovarian)	GI50 (UACC-257 melanoma)	GI50 (SF-268 CNS)	TGI (SF-268 CNS)	GI50 (HCC-2998 colon)	GI50 (M14 melanoma)	GI50 (A498 renal)	GI50 (SK-MEL-28 melanoma)	GI50 (HCT-116 colon)	GI50 (MALME-3M melanoma)
CC[C@@H]1NC(C(=O)OC)Cc2c1[nH]c1ccccc21 (stereo not given in full)	> 100 µM	> 100 µM	> 100 µM	> 100 µM	> 100 µM	> 100 µM	> 100 µM	> 100 µM	> 100 µM	–	–	–	–	–	–	–	–	–	–	–
CCCCNCCCNCCCNC(=O)c1csc(-c2csc(CCNC(=O)C(NC(=O)C(C)C(O)C(C)NC(=O)C(NC(=O)c3nc(C(CC(N)=O)NCC(N)C(N)=O)nc(N)c3C)C(OC3OC(CO)C(O)C(O)C3OC3OC(CO)C(O)C(OC(N)=O)C3O)c3cnc[nH]3)C(C)O)n2)n1 (stereo not given)	50 µM and > 100 µM	50 µM and > 84 µM	–	50 µM and > 100 µM	50 µM and 15.9 µM	50 µM and 28.1 µM	> 75.7 µM	50 µM and 14.2 µM	16.9 µM	3.4 µM	20.9 µM	0.106 µM	3.16 µM	50 µM and 15.2 µM	15.9 µM	34.3 µM	1.25 µM	> 50 µM	0.427 µM	0.697 µM
COc1c2occc2c(N)c2ccc(=O)oc12	> 100 µM	> 100 µM	> 100 µM	> 100 µM	> 100 µM	> 100 µM	> 100 µM	> 100 µM	> 100 µM	–	–	–	–	> 100 µM	–	–	–	–	–	–
O/N=C1\CCCCC1C(NO)c1ccccc1 (stereo not given)	> 100 µM	> 100 µM	> 100 µM	> 100 µM	> 100 µM	> 100 µM	> 100 µM	> 100 µM	> 100 µM	–	–	–	–	> 100 µM	–	–	–	–	–	–
Cc1cccc(NC2=C(Cl)C(=O)c3nc(C)ccc3C2=O)c1	5.8 µM	2.6 µM	3.12 µM	3.22 µM	2.72 µM	2.43 µM	3.14 µM	1.86 µM	3.07 µM	2.14 µM	1.18 µM	1.63 µM	2.1 µM	6.4 µM	1.69 µM	1.32 µM	0.235 µM	1.71 µM	0.44 µM	1.65 µM
NC(=S)N/N=C/c1ncccc1O	3.6 µM and 3.59 µM	> 96.7 µM and 380 µM	8.97 µM and 72.7 µM	> 42.3 µM and 166 µM	4.72 µM and 2.69 µM	29.2 µM and 32.4 µM	> 1000 µM	> 391 µM	> 64.8 µM and 156 µM	1.27 µM and 0.477 µM	2.88 µM	–	2.88 µM and 0.736 µM	29.6 µM and 89.4 µM	3.08 µM	0.684 µM	3.74 µM	5.86 µM	2.86 µM	4.47 µM
COc1ccc(Cl)cc1NC(=O)c1ccc(NC2=C(Cl)C(=O)N(Cc3ccccc3)C2=O)cc1	55.3 µM	> 100 µM	> 100 µM	28.8 µM	> 100 µM	> 100 µM	> 100 µM	> 100 µM	> 100 µM	9.51 µM	> 100 µM	94.1 µM	25.3 µM	> 100 µM	14.1 µM	> 100 µM	> 100 µM	> 100 µM	37.7 µM	> 100 µM
CCn1cc(-c2ccnc3[nH]c(-c4cccc(CN(C)C)c4)cc23)c(-c2ccc(NC(=O)N(C)C)cc2)n1	8.3 µM and > 10 µM	33.2 µM and > 10 µM	21.7 µM and > 10 µM	21.5 µM and > 10 µM	16.9 µM and > 10 µM	0.749 µM and 3.28 µM	17.1 µM and > 10 µM	17.7 µM and > 10 µM	29.3 µM and > 10 µM	1.46 µM and 0.863 µM	3.47 µM and 1.9 µM	4.76 µM and > 10 µM	3.03 µM and 2.07 µM	20.9 µM and > 10 µM	7.29 µM and > 10 µM	1.91 µM and 2.31 µM	0.0673 µM and 0.519 µM	3.45 µM and > 10 µM	0.322 µM and 0.455 µM	12 µM and > 10 µM
CCCCCCCCSC1=C(Cl)C(=O)C(OC)=C(OC)C1=O	16.8 µM	32.2 µM	21.4 µM	32.4 µM	16.9 µM	27.9 µM	–	19.8 µM	21.8 µM	–	–	–	–	28.7 µM	–	–	–	–	–	–
O=C(Nc1nc(-c2c[nH]c3ccccc23)cs1)c1n[nH]c(=O)c2ccccc12	> 100 µM	34.7 µM	> 100 µM	> 100 µM	20.1 µM	> 100 µM	49.2 µM	> 44.5 µM	80 µM	0.777 µM	2.01 µM	38.4 µM	1.25 µM	> 46.2 µM	18.1 µM	3.48 µM	22 µM	12.4 µM	0.368 µM	18.7 µM
CCCCCCCC(=O)OCC1OC(n2cc(F)c(=O)[nH]c2=O)C(N)C(OC(=O)CCCCCCC)C1O (stereo not given)	42.3 µM	47.7 µM	33.4 µM	35.3 µM	32.2 µM	39.1 µM	34.1 µM	34.6 µM	36.9 µM	–	–	–	–	35.4 µM	–	–	–	–	–	–
COC(=O)C1=CN(CC2=CC(=O)C(C)=CC2=O)C=C(C(=O)OC)C1c1ccccc1OC	18.5 µM	57.3 µM	44.3 µM	28.9 µM	32.7 µM	> 87.9 µM	> 57.5 µM	66 µM	33.3 µM	4.74 µM	22.3 µM	22.3 µM	18.7 µM	58.6 µM	15.5 µM	17.3 µM	31.4 µM	28 µM	22.8 µM	14 µM
O=c1[nH]c(=O)n(C2CC(O)C(CO)O2)cc1OS(=O)(=O)C(F)(F)F (stereo not given)	> 100 µM	> 100 µM	–	> 100 µM	> 100 µM	> 100 µM	> 100 µM	> 100 µM	> 100 µM	–	–	–	–	> 100 µM	–	–	–	–	–	–
CC(C)C1CN(C(=O)OCc2ccccc2)C2N1C(=O)C2(C)OCc1ccccc1 (stereo not given)	66.9 µM	> 100 µM	96.9 µM	> 100 µM	> 100 µM	95.8 µM	> 100 µM	> 100 µM	> 100 µM	–	–	–	–	> 100 µM	–	–	–	–	–	–
CC[C@]1(O)C[C@H]2CN(CCc3c([nH]c4ccccc34)C(C(=O)OC)(c3cc4c(cc3OC)N(C)[C@H]3[C@@](O)(C(=O)OC)[C@H](OC(C)=O)[C@]5(CC)[C@@H]6C[C@@H]6CN6CC[C@]43[C@@H]65)C2)C1 (stereo not given in full)	0.0108 µM	5.11 µM	> 8.64 µM	0.278 µM	0.254 µM	0.012 µM	> 14.3 µM	4.13 µM	> 8.73 µM	0.0034 µM	0.00812 µM	0.00509 µM	0.0145 µM	10.4 µM	0.0045 µM	0.00365 µM	0.00275 µM	0.00305 µM	0.00348 µM	0.00659 µM
